Reference: paper PMC6328008 (Journal of Enzyme Inhibition and Medicinal Chemistry, 2019)
Entries after “also recorded” stand apart in the source; their conditions may differ.

How the values were obtained:
[1] = test system: Panc1 pancreatic cancer cells; experiment: Cancer cell line growth inhibition assay; format: cell-based, human; conditions: for Inhibition of growth of Panc1 cells (in words): 3 days, concentrations up to 10 µM
[2] = test system: normal mobilised peripheral blood progenitor cells; conditions: listed as NSAH; cited from earlier work

| SMILES | Inhibition of growth of Panc1 cells (in words) [1] | other results |
| --- | --- | --- |
| O=C1Nc2ccccc2/C1=N\NC(=O)c1ccccc1O [TP1, (E)-2-Hydroxy-N'-(2-oxoindolin-3-ylidene)benzohydrazide] | did not inhibit the growth |  |
| O=C(N/N=C/c1cc(-c2ccccc2)ccc1O)c1ccccc1O [TP2, (E)-2-Hydroxy-N'-((4-hydroxy-[1,1'-biphenyl]-3-yl)methylene)-benzohydrazide] |  | Fold decrease in potency in cells on removal of the methoxy (TP2, 3 vs TP5, 6) ([1]; Panc1): > 2 fold |
| O=C(N/N=C/c1cc(-c2ccsc2)ccc1O)c1ccccc1O [TP3, (E)-2-Hydroxy-N'-(2-hydroxy-5-(thiophen-3-yl)-benzylidene)-benzohydrazide] |  | Fold decrease in potency in cells on removal of the methoxy (TP2, 3 vs TP5, 6) ([1]; Panc1): > 2 fold |
| COc1ccc(-c2ccsc2)c(/C=N/NC(=O)c2ccccc2O)c1O [TP6, (E)-2-Hydroxy-N'-(2-hydroxy-3-methoxy-6-(thiophen-3-yl)benzylidene)-benzohydrazide] |  | Fold decrease in IC50 over lead compound NSAH (TP8) ([1]; Panc1): > 2 fold |
| Nc1ncnc2c1ncn2-c1ccc(/C=N/NC(=O)c2ccccc2O)cc1 [TP7, (E)-N'-(4–(6-amino-9H-purin-9-yl)benzylidene)-2-hydroxybenzohydrazide] | did not inhibit the growth |  |
| O=C(N/N=C/c1c(O)ccc2ccccc12)c1ccccc1O [TP8, (E)-2-Hydroxy-N'-((2-hydroxynaphthalen-1-yl)methylene)-benzohydrazide] |  | Toxicity against normal mobilised peripheral blood progenitor cells [2]: much less effective |
| COc1ccc(-c2cnc(-c3ccccc3O)s2)cc1 [TP9, 2–(5-(4-Methoxyphenyl)thiazol-2-yl)-phenol] | did not inhibit the growth; also recorded: ineffective |  |
| O=C(NNC(=O)c1c(O)ccc2ccccc12)c1cccnc1 [TP11, N'-(2-Hydroxy-1-naphthoyl)-nicotinohydrazide] | did not inhibit the growth |  |
| O=C(N/N=C/c1cccnc1)c1c(O)ccc2ccccc12 [TP12, (E)-2-Hydroxy-N'-(pyridin-3-ylmethylene)-1-naphthohydrazide] | did not inhibit the growth |  |
| O=C(NNC(=O)c1ccccc1O)c1cccnc1 [TP13, N'-(2-Hydroxybenzoyl)-nicotinohydrazide] | did not inhibit the growth |  |
